This note sets out measurements from ChEMBL document CHEMBL3585261, “Isolation and Pharmacological Evaluation of Minor Cannabinoids from High-Potency Cannabis sativa” (J Nat Prod, 2015).

The subject of experiment [1] is Mus musculus. Put plainly: Neurobehavioral effect on Swiss Webster mouse assessed as locomotor activity measured as total number of interruptions at 20 mg/kg, ip monitored for 30 mins (reference value: 2091 +/- 209.3) by mouse tetrad assay. In kind it is functional.
Experiment [2] concerns Mus musculus. Put plainly: Neurobehavioral effect on Swiss Webster mouse assessed as decrease in rectal temperature at 20 mg/kg, ip (reference value: 0.58 +/- 0.26 degC) by mouse tetrad assay. The format is functional.
Experiment [3] has as its system Mus musculus. Put plainly: Neurobehavioral effect on Swiss Webster mouse assessed as catalepsy latency time at 20 mg/kg, ip (reference value: 2.1 +/- 0.60 secs) by mouse tetrad assay. The format is functional.
Experiment [4] has as its system Mus musculus. Put plainly: Neurobehavioral effect on Swiss Webster mouse assessed as tail-flick latency time at 20 mg/kg, ip (reference value: 0.84 +/- 3.58 %) by mouse tetrad assay. In kind it is functional. (In hot-plate and tail-flick tests a longer latency is read as antinociception.)
The next experiment has as its target Cannabinoid receptor 2 (Homo sapiens, UniProt P34972). Put plainly: Displacement of [3H]CP55940 from full length human recombinant CB2 receptor expressed in HEK293 cells after 90 mins by scintillation counting analysis. In kind it is cell-based. (In general: Displacement assays read how much labelled ligand stays bound in the presence of the test substance.)

For experiment [5], the system named is Mus musculus. Put plainly: Neurobehavioral effect on Swiss Webster mouse assessed as hot plate latency time at 20 mg/kg, ip (reference value: 8.32 +/- 2.20 %) by mouse tetrad assay. In kind it is functional.
In the next experiment the target is Cannabinoid receptor 1 (Homo sapiens, UniProt P21554). Put plainly: Displacement of [3H]CP55940 from full length human recombinant CB1 receptor expressed in HEK293 cells after 90 mins by scintillation counting analysis. The format is cell-based.
Chain of Cannabinoid receptor 1 (P21554 whole entry): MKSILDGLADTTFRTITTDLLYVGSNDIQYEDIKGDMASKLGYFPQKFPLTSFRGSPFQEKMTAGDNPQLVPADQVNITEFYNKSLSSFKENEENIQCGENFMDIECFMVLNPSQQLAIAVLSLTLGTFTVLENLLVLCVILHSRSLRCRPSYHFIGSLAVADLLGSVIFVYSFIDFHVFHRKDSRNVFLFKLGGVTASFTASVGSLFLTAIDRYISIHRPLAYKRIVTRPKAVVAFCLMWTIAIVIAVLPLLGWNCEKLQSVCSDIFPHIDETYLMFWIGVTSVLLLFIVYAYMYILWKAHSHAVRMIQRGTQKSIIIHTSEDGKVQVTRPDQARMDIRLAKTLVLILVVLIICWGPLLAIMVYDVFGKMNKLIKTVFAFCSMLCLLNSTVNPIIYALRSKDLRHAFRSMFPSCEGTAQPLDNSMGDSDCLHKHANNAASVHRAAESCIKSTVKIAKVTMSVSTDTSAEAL
Experiment [6] deals with Mus musculus. Put plainly: Neurobehavioral effect on Swiss Webster mouse assessed as catalepsy latency time at 10 mg/kg, ip (reference value: 2.1 +/- 0.60 secs) by mouse tetrad assay. The format is functional.
Experiment [7] deals with Mus musculus. Put plainly: Neurobehavioral effect on Swiss Webster mouse assessed as tail-flick latency time at 40 mg/kg, ip (reference value: 0.84 +/- 3.58 %) by mouse tetrad assay. In kind it is functional.
In experiment [8] the test system is Mus musculus. Put plainly: Neurobehavioral effect on Swiss Webster mouse assessed as locomotor activity measured as total number of interruptions at 40 mg/kg, ip monitored for 30 mins (reference value: 2091 +/- 209.3) by mouse tetrad assay. The format is functional.
Experiment [9] deals with Mus musculus. Put plainly: Neurobehavioral effect on Swiss Webster mouse assessed as hot plate latency time at 40 mg/kg, ip (reference value: 8.32 +/- 2.20 %) by mouse tetrad assay. The format is functional.
In experiment [10] the test system is Mus musculus. Put plainly: Neurobehavioral effect on Swiss Webster mouse assessed as tail-flick latency time at 10 mg/kg, ip (reference value: 0.84 +/- 3.58 %) by mouse tetrad assay. The format is functional.
Experiment [11] concerns Mus musculus. Put plainly: Neurobehavioral effect on Swiss Webster mouse assessed as hot plate latency time at 10 mg/kg, ip (reference value: 8.32 +/- 2.20 %) by mouse tetrad assay. In kind it is functional.
For experiment [12], the system named is Mus musculus. Put plainly: Neurobehavioral effect on Swiss Webster mouse assessed as locomotor activity measured as total number of interruptions at 10 mg/kg, ip monitored for 30 mins (reference value: 2091 +/- 209.3) by mouse tetrad assay. The format is functional.
The test system of experiment [13] is Mus musculus. Put plainly: Neurobehavioral effect on Swiss Webster mouse assessed as decrease in rectal temperature at 40 mg/kg, ip (reference value: 0.58 +/- 0.26 degC) by mouse tetrad assay. In kind it is functional.
The subject of experiment [14] is Mus musculus. Put plainly: Neurobehavioral effect on Swiss Webster mouse assessed as decrease in rectal temperature at 10 mg/kg, ip (reference value: 0.58 +/- 0.26 degC) by mouse tetrad assay. In kind it is functional.
Experiment [15] has as its system Mus musculus. Put plainly: Neurobehavioral effect on Swiss Webster mouse assessed as catalepsy latency time at 40 mg/kg, ip (reference value: 2.1 +/- 0.60 secs) by mouse tetrad assay. The format is functional.
Experiment [16] has as its system Mus musculus. Put plainly: Neurobehavioral effect on Swiss Webster mouse assessed as tail-flick latency time at 5 mg/kg, ip (reference value: 0.84 +/- 3.58 %) by mouse tetrad assay. In kind it is functional.
Experiment [17] concerns Mus musculus. Put plainly: Neurobehavioral effect on Swiss Webster mouse assessed as catalepsy latency time at 5 mg/kg, ip (reference value: 2.1 +/- 0.60 secs) by mouse tetrad assay. In kind it is functional.
In experiment [18] the test system is Mus musculus. Put plainly: Neurobehavioral effect on Swiss Webster mouse assessed as hot plate latency time at 5 mg/kg, ip (reference value: 8.32 +/- 2.20 %) by mouse tetrad assay. The format is functional.
For experiment [19], the system named is Mus musculus. Put plainly: Neurobehavioral effect on Swiss Webster mouse assessed as decrease in rectal temperature at 5 mg/kg, ip (reference value: 0.58 +/- 0.26 degC) by mouse tetrad assay. The format is functional.
Experiment [20] deals with Mus musculus. Put plainly: Neurobehavioral effect on Swiss Webster mouse assessed as locomotor activity measured as total number of interruptions at 5 mg/kg, ip monitored for 30 mins (reference value: 2091 +/- 209.3) by mouse tetrad assay. In kind it is functional.

Molecules are shown by their SMILES.

Chain of Cannabinoid receptor 2 (P34972 whole entry): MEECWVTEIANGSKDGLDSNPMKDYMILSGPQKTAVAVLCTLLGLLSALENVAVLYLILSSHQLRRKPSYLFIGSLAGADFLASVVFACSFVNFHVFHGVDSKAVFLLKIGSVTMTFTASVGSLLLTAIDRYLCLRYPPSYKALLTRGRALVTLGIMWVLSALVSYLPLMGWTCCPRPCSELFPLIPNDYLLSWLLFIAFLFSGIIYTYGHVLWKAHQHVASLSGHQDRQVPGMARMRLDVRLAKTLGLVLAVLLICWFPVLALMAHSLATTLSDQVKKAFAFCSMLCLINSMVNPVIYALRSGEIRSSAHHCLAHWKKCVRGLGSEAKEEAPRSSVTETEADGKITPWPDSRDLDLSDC

Turning to `CCCCCc1cc(O)c2c(c1)OC(C)(C)[C@@H]1C[C@H](O)C(C)=C[C@@H]21`, the Activity with Mus musculus [1] was determined as 908.9. In addition, the T in the experiment with Mus musculus [2] is 0.58 °C. Besides, the Time in the experiment on Mus musculus [3] was determined as 1.5 s. Moreover, the figures for the MPE in the experiment on Mus musculus [4] and in the experiment with Mus musculus [5] were 5.01% and 4.95%, respectively. For the same compound, the Ki at Cannabinoid receptor 2 worked out at 3220 nM; on Cannabinoid receptor 1 it was 1910 nM.

With `CCCCCc1cc(O)c2c(c1)OC(C)(C)[C@@H]1C[C@@H](O)C(C)=C[C@@H]21`, the Activity in the experiment on Mus musculus [1] is reported as 1148; with Mus musculus [8], 777.4; in the experiment on Mus musculus [12], 1617. Also, the Time with Mus musculus [6] turned out to be 1.143 s; with Mus musculus [3] it was 1.43 s; in the experiment on Mus musculus [15], 11.43 s. Besides, the MPE with Mus musculus [7] is given as 12.69%; in the experiment on Mus musculus [4], 1.62%; with Mus musculus [9], 11.79%; in the experiment with Mus musculus [10], 0.13%; with Mus musculus [5], 2.04%; in the experiment with Mus musculus [11], 11.83%. Further, the results for the T with Mus musculus [2], with Mus musculus [13] and in the experiment with Mus musculus [14] were 0.5 °C, 0.91 °C and 0.49 °C, respectively. Also, the results for the inhibition constant (Ki) on Cannabinoid receptor 2 and at Cannabinoid receptor 1 were 88 nM and 65 nM, respectively.

`CCCCCc1cc(O)c2c(c1)OC(C)(C)[C@@H]1CC=C(C)[C@H](O)[C@@H]21`: the Activity with Mus musculus [1] stood at 301.9; in the experiment with Mus musculus [12] it was 288.3; in the experiment with Mus musculus [20], 318.1. Moreover, the Time with Mus musculus [6] is given as 23.9 s; with Mus musculus [3] it was 51.1 s; in the experiment on Mus musculus [17], 22 s. In addition, the figures for the T with Mus musculus [2], in the experiment on Mus musculus [19] and in the experiment on Mus musculus [14] were 5.38 °C, 2.46 °C and 3.21 °C, respectively. In addition, the MPE in the experiment on Mus musculus [4] stood at 90.16%; in the experiment on Mus musculus [16], 37.4%; with Mus musculus [10] it was 31.46%; with Mus musculus [5], 47.63%; with Mus musculus [11], 56.33%; in the experiment with Mus musculus [18], 21.04%. Also, the inhibition constant (Ki) on Cannabinoid receptor 2 was found to be 30 nM; at Cannabinoid receptor 1, 31 nM.

As for `CCCCCc1cc(O)c2c(c1)OC(C)(C)[C@@H]1CC=C(C)[C@@H](O)[C@@H]21`, the figures for the Time with Mus musculus [6] and in the experiment with Mus musculus [15] were 1.4 s and 13.7 s, respectively. In addition, the MPE in the experiment on Mus musculus [7] is 69.95%; with Mus musculus [9] it was 55.65%; in the experiment on Mus musculus [10] it was 2.2%; with Mus musculus [11], 6.819%. Also, the Activity in the experiment with Mus musculus [8] worked out at 2537; in the experiment on Mus musculus [12], 3045. Moreover, the Ki at Cannabinoid receptor 2 worked out at 3270 nM; at Cannabinoid receptor 1 it was 830 nM. Besides, the T turned out to be 5.32 °C in the experiment on Mus musculus [13] and 0.47 °C in the experiment with Mus musculus [14].

In the case of `C=C1CC[C@@H]2[C@H](c3c(O)cc(CCCCC)cc3OC2(C)C)[C@H]1O`, the Ki on Cannabinoid receptor 2 is 129 nM; at Cannabinoid receptor 1, 117 nM.

On to `CCCCCc1cc(O)c2c(c1)OC(C)(C)[C@@H]1CC[C@@]3(C)O[C@H]3[C@@H]21`, for which the values for the Activity in the experiment with Mus musculus [1], with Mus musculus [12] and with Mus musculus [20] were 380.3, 291.2 and 213.4, respectively. Also, the Time in the experiment on Mus musculus [6] came to 8.8 s; in the experiment with Mus musculus [3], 27.5 s; with Mus musculus [17], 23.8 s. In addition, the T is 4.58 °C in the experiment with Mus musculus [2], 3.75 °C with Mus musculus [19] and 3.11 °C in the experiment with Mus musculus [14]. The MPE is 50.37% in the experiment on Mus musculus [4]; 16.25% in the experiment on Mus musculus [16]; 82.71% in the experiment on Mus musculus [10]; 49.39% in the experiment with Mus musculus [5]; 35.89% with Mus musculus [11]; 36.98% with Mus musculus [18]. Moreover, the results for the Ki at Cannabinoid receptor 2 and on Cannabinoid receptor 1 were 335 nM and 224 nM, respectively.

With `CCCCCc1cc2c(c(O)c1C(=O)O)[C@@H]1C=C(COC(C)=O)CC[C@H]1C(C)(C)O2`, the Ki amounted to 912 nM on Cannabinoid receptor 2 and 47 nM on Cannabinoid receptor 1.

Consider `CCCCCc1cc(O)c2c(c1)OC(C)(C)[C@@H]1CC[C@](C)(O)[C@@H](O)[C@@H]21`, for which the Activity in the experiment with Mus musculus [1] worked out at 1892. The T in the experiment on Mus musculus [2] stood at 0.45 °C. In the experiment with Mus musculus [3], the Time was determined as 2.25 s. In addition, the results for the MPE in the experiment with Mus musculus [4] and with Mus musculus [5] were 2.98% and 2.4%, respectively. Further, the Ki at Cannabinoid receptor 2 is 2140 nM; at Cannabinoid receptor 1 it was 5670 nM.

As to `CCCCCc1cc(O)c2c(c1)OC(C)(C)[C@@H]1CC=C(C)C[C@@H]21` [DELTA-8-TETRAHYDROCANNABINOL], the Activity in the experiment on Mus musculus [1] is reported as 377.4; with Mus musculus [20], 1480. Moreover, the results for the T in the experiment on Mus musculus [2] and in the experiment on Mus musculus [19] were 1.96 °C and 0.12 °C, respectively. The results for the Time with Mus musculus [3] and in the experiment with Mus musculus [17] were 5.3 s and 1.6 s, respectively. Also, the MPE in the experiment on Mus musculus [4] was determined as 5.97%; with Mus musculus [16], 8.01%; with Mus musculus [5], 16.98%; in the experiment with Mus musculus [18] it was 12.82%.

On to `CCCCCc1cc(O)c2c(c1)OC(C)(C)[C@@H]1CCC(C)=C[C@@H]21` [DRONABINOL], for which the Activity in the experiment on Mus musculus [1] came to 276.2; in the experiment on Mus musculus [8], 194; in the experiment with Mus musculus [12], 190.9. Moreover, the Time in the experiment with Mus musculus [6] was 14.4 s; in the experiment with Mus musculus [3], 47.9 s; in the experiment with Mus musculus [15] it was 37.7 s. Moreover, the MPE amounted to 51.96% in the experiment on Mus musculus [7]; 42.21% in the experiment with Mus musculus [4]; 38.18% in the experiment with Mus musculus [9]; 6.52% with Mus musculus [10]; 46.85% in the experiment on Mus musculus [5]; 29.04% in the experiment with Mus musculus [11]. For the same compound, the T in the experiment with Mus musculus [2] was 4.25 °C; in the experiment with Mus musculus [13], 4.8 °C; in the experiment with Mus musculus [14], 2.05 °C.

Broadly, the Ki is the equilibrium dissociation constant of an inhibitor or competing ligand from its target.
